SMILES strings stand for the structures.

A short description of one data set: log P determination by reversed-phase HPLC (EEC Directive 79/831 Annex V.A8; acidic or neutral mobile phase). It is filed as physicochemical. To be noted: HPLC reversed-phase C18, 43° C.; acidic range: 0.1% aqueous phosphoric acid, acetonitrile gradient (marked a)). On the procedure:
The log P values given in the table were determined in accordance with EEC Directive 79/831 Annex V.A8 by HPLC (High Performance Liquid Chromatography) using a reversed-phase column (C 18). Temperature: 43° C.
(a) Mobile phases for the determination in the acidic range: 0.1% aqueous phosphoric acid, acetonitrile; linear gradient from 10% acetonitrile to 90% acetonitrile—the corresponding measurement results are marked a) in Table 1.
(b) Mobile phases for the determination in the neutral range: 0.01 molar aqueous phosphate buffer solution, acetonitrile; linear gradient from 10% acetonitrile to 90% acetonitrile—the corresponding measurement results are marked b) in Table 1.
Consider `CONCc1c(Cl)ccc(C(=O)C2C(=O)CCCC2=O)c1Cl` [Example 129], for which the logP result was “logP = 2.33^a)”.
On the same count and under the same terms, next, `CCn1ncc(C(=O)c2ccc(Br)c(OCCNS(C)(=O)=O)c2Br)c1O` [Example 17]: “logP = 1.71^a)”; `CCn1ncc(C(=O)c2ccc(S(C)(=O)=O)c(OCCNS(C)(=O)=O)c2Cl)c1O` [Example 13]: “logP = 1.23^a)”; `O=C1CCCC(=O)C1C(=O)c1ccc(Cl)c(OCCNS(=O)(=O)c2cccs2)c1Cl` [Example 35]: “(I-2) logP = 2.92^a)”.
Consider `CON(C)Cc1c(S(C)(=O)=O)ccc(C(=O)C2C(=O)CCCC2=O)c1Cl` [Example 145], for which the logP entry was “logP = 2.49^a)”.
Take `CCn1ncc(C(=O)c2ccc(S(C)(=O)=O)c(CN(C)OC)c2Cl)c1O` [Example 11]: the logP entry was “logP = 1.78^a)”.
For the molecule `CCN(Cc1c(Cl)ccc(C(=O)C2C(=O)CCCC2=O)c1Cl)OC` [Example 148], the logP result is recorded as “logP = 3.63^a)”.
As for `CCn1ncc(C(=O)c2ccc(S(C)(=O)=O)c(CN(Cc3ccccc3)OC)c2Cl)c1O` [Example 153], the logP result was “(I-2) logP = 2.82^a)”.
Consider `CC(C)S(=O)(=O)NCCOc1c(Cl)ccc(C(=O)C2C(=O)CCCC2=O)c1Cl` [Example 25], for which the logP entry is on record as “logP = 2.50^a)”.
In the case of `CCn1nc(C)c(C(=O)c2ccc(S(C)(=O)=O)c(CN(C)OC)c2Cl)c1O` [Example 12], the logP entry was “logP = 1.45^a)”.
In the case of `CCN(Cc1c(S(C)(=O)=O)ccc(C(=O)c2cnn(CC)c2O)c1Cl)OC` [Example 149], the logP entry is given as “logP = 2.16^a)”.
As for `CS(=O)(=O)NCCOc1c(S(C)(=O)=O)ccc(C(=O)C2C(=O)CCCC2=O)c1Cl` [Example 14], the logP result is “logP = 1.76^a)”.

The same data set, now with this note: HPLC, reversed-phase C18, 43° C.; acidic range a): 0.1% aqueous phosphoric acid, acetonitrile, linear gradient 10% to 90% acetonitrile.
Regarding `CS(=O)(=O)c1ccc(C(=O)C2C(=O)CCCC2=O)c(Cl)c1CNOC1CCCC1` [Example 401], the logP result was “(I-2) logP = 3.07^a)”.
In the case of `CCN(Cc1c(Cl)ccc(C(=O)c2cnn(C)c2O)c1OC)OC` [Example 486], the logP result was “logP = 2.44^a)”.
Consider `CCn1ncc(C(=O)c2ccc(S(C)(=O)=O)c(CN(C)OCC3CC3)c2Cl)c1O` [Example 443], for which the logP entry is listed as “(I-2) logP = 2.41^a)”.
In the case of `CCON(C)Cc1c(S(C)(=O)=O)ccc(C(=O)C2C(=O)CCC(C)(C)C2=O)c1Cl` (centres unmarked) [Example 425], the logP result was “(I-2) logP = 3.65^a)”.
In the case of `CCON(Cc1c(S(C)(=O)=O)ccc(C(=O)C2C(=O)CCCC2=O)c1Cl)C(C)C` [Example 418], the logP result was “logP = 3.66^a)”.
Still for that read-out and setting: to `CCn1ncc(C(=O)c2ccc(S(C)(=O)=O)c(CN(CC3CCOC3)OC)c2Cl)c1O` (centres unmarked) [Example 423] belongs “(I-2) logP = 1.97^a)”.
In the case of `CCn1ncc(C(=O)c2ccc(S(C)(=O)=O)c(CN(OC)C(C)C)c2Cl)c1O` [Example 370], the logP result is reported as “logP = 2.52^a)”.
With `CCN(Cc1c(Cl)ccc(C(=O)C2C(=O)CCC(C)(C)C2=O)c1OC)OC` (centres unmarked) [Example 484], the logP entry is given as “(I-2) logP = 2.30^a)”.
The same measure, in the same setting: next, `CCS(=O)(=O)NCCOc1c(Br)ccc(C(=O)c2cnn(C)c2O)c1C` [Example 363]: “logP = 1.77^a)”.
The same measure, in the same setting: to `CN(Cc1c(S(C)(=O)=O)ccc(C(=O)C2C(=O)CCCC2=O)c1Cl)S(C)(=O)=O` [Example 454] belongs “logP = 1.84^a)”; to `CCN(Cc1c(S(C)(=O)=O)ccc(C(=O)c2cnn(C)c2O)c1Cl)S(C)(=O)=O` [Example 469], “logP = 1.22^a)”.
Still for that read-out and setting: to `C=CCN(Cc1c(S(C)(=O)=O)ccc(C(=O)c2cnn(CC)c2O)c1Cl)S(C)(=O)=O` [Example 461] belongs “logP = 1.63^a)”; to `CN(Cc1c(S(C)(=O)=O)ccc(C(=O)C2C(=O)CCCC2=O)c1Cl)OCC1CCCCO1` (centres unmarked) [Example 438], “(I-2) logP = 3.04^a)”; to `CCn1ncc(C(=O)c2ccc(S(C)(=O)=O)c(CN(OC(C)C)C(C)C)c2Cl)c1O` [Example 421], “logP = 3.25^a)”.
For `CON(CC(=O)N(C)C)Cc1c(S(C)(=O)=O)ccc(C(=O)C2C(=O)CCCC2=O)c1Cl` [Example 396], the logP entry is “(I-2) logP = 1.93^a)”.
Consider `CCN(Cc1c(Cl)ccc(C(=O)c2cnn(C)c2O)c1Cl)OC` [Example 480], for which the logP entry was “logP = 2.46^a)”.
Still for that read-out and setting: to `COc1c(C(=O)C2C(=O)CC(C)CC2=O)ccc(Cl)c1CN(C)S(C)(=O)=O` (centres unmarked) [Example 476] belongs “(I-2) logP = 2.56^a)”.
For `COc1c(C(=O)C2C(=O)CCCC2=O)ccc(Cl)c1CN(C)OC` [Example 477], the logP entry was “logP = 2.63^a)”.
In the case of `Cc1c(C(=O)c2cnn(C)c2O)ccc(Br)c1OCCNS(C)(=O)=O` [Example 366], the logP result was “logP = 1.56^a)”.
On the same count and under the same terms, to `C=CCN(Cc1c(S(C)(=O)=O)ccc(C(=O)C2C(=O)CCCC2=O)c1Cl)S(C)(=O)=O` [Example 460] belongs “logP = 2.17^a)”.
With `CON(Cc1c(S(C)(=O)=O)ccc(C(=O)c2cnn(C)c2O)c1Cl)C(C)C1CC1` (centres unmarked) [Example 374], the logP result is listed as “(I-2) logP = 2.53^a)”.
For the molecule `CCN(Cc1c(Cl)ccc(C(=O)C2C(=O)CCC(C)(C)C2=O)c1Cl)OC` (centres unmarked) [Example 481], the logP entry was “(I-2) logP = 4.95^a)”.
Turning to `CCN(Cc1c(Cl)ccc(C(=O)C2C(=O)CCC(C)(C)C2=O)c1OC)S(C)(=O)=O` (centres unmarked) [Example 465], the logP result is reported as “(I-2) logP = 3.21^a)”.
As to `COc1c(C(=O)c2cnn(C)c2O)ccc(Cl)c1CN(C)OC` [Example 478], the logP entry was “logP = 1.90^a)”.

The data set is the same for the next values; noted with them: HPLC, reversed-phase C 18, 43° C.; acidic range: 0.1% aqueous phosphoric acid, acetonitrile (marked a) or acidic).
With `COC(=O)c1ccc(S(C)(=O)=O)c(CN(C)OCC2CCCO2)c1Cl` (centres unmarked) [VIII-64], the “log P (acidic)” value is listed as “logPacidic = 2.51”.
Still for that read-out and setting: to `COC(=O)c1ccc(S(C)(=O)=O)c(CN(OC)C2CCSCC2)c1Cl` [VIII-40] belongs “logPacidic = 3.20”.
In the case of `C=CCN(Cc1c(S(C)(=O)=O)ccc(C(=O)OC)c1Cl)OC` [VIII-35], the “log P (acidic)” value is listed as “logPacidic = 2.87”.
For the molecule `CONCc1c(S(C)(=O)=O)ccc(C(=O)OC)c1Cl` [VIII-21], the “log P (acidic)” value was “logPacidic = 1.69”.
Turning to `CCN(Cc1c(S(C)(=O)=O)ccc(C(=O)OC)c1Cl)OC(C)C` [VIII-46], the “log P (acidic)” value is “logPacidic = 3.39”.
On the same count and under the same terms, next, `COC(=O)c1ccc(S(C)(=O)=O)c(CN(CC2CCOC2)OC2CCCC2)c1Cl` (centres unmarked) [VIII-56]: “logPacidic = 3.30”; `CCON(C)Cc1c(S(C)(=O)=O)ccc(C(=O)OC)c1Cl` [VIII-43]: “logPacidic = 2.64”.
`COC(=O)c1ccc(Cl)c(CN(C)S(C)(=O)=O)c1Cl` [VIII-68]: the “log P (acidic)” value is listed as “logPacidic = 2.15”.
On the same count and under the same terms, to `COC(=O)c1ccc(S(C)(=O)=O)c(CN(OC)C2CCOCC2)c1Cl` [VIII-60] belongs “logPacidic = 2.38”.
Still for that read-out and setting: to `COC(=O)c1ccc(S(C)(=O)=O)c(CN(C)OC2CCCC2)c1Cl` [VIII-49] belongs “logPacidic = 3.48”; to `COC(=O)c1ccc(S(C)(=O)=O)c(CN(CC(=O)N(C)C)OC)c1Cl` [VIII-53], “logPacidic = 1.74”; to `COC(=O)c1ccc(S(C)(=O)=O)c(CN(C)OCC2CCCCO2)c1Cl` (centres unmarked) [VIII-65], “logPacidic = 2.87”.
In the case of `COC(=O)c1ccc(Cl)c(CN(C)OC)c1OC` [VIII-66], the “log P (acidic)” value was “logPacidic = 2.76”.
The same measure, in the same setting: next, `COC(=O)c1ccc(S(C)(=O)=O)c(CNOC2CCCC2)c1Cl` [VIII-48]: “logPacidic = 2.93”; `COC(=O)c1ccc(Br)c(OCCNS(C)(=O)=O)c1C` [VIII-28]: “logPacidic = 2.20”.
As for `COC(=O)c1ccc(S(C)(=O)=O)c(CN(Cc2cccnc2)OC)c1Cl` [VIII-42], the “log P (acidic)” value was “logPacidic = 1.16”.

Still in this data set, the particulars now being: HPLC, reversed-phase C 18, 43° C.; mobile phase range not marked.
Consider `CCn1ncc(C(=O)c2ccc(S(C)(=O)=O)c(CN(C)OC)c2Cl)c1O` [Example 304], for which the “logP (HPLC, mobile phase not marked)” value was 1.78.
In the case of `COC(=O)c1ccc(Cl)c(CN(C)OC)c1Cl` [VIII-8], the “log P” value is “logP = 3.08”.
On to `CS(=O)(=O)c1ccc(C(=O)C2C(=O)CCCC2=O)c(Cl)c1CNOCc1ccccc1` [Example 348], for which the “logP (HPLC, mobile phase not marked)” value is reported as “(I-2) 3.04”.
Take `CCOC(=O)c1ccc(Cl)c(OCCNS(=O)(=O)C(C)C)c1Cl` [VIII-20]: the “log P” value is listed as “logP = 2.86”.
With `CCN(Cc1c(S(C)(=O)=O)ccc(C(=O)c2cnn(C)c2O)c1Cl)OC` [Example 310], the “logP (HPLC, mobile phase not marked)” value is listed as 1.84.
On to `CCn1ncc(C(=O)c2ccc(S(C)(=O)=O)c(CNOC)c2Cl)c1O` [Example 299], for which the “logP (HPLC, mobile phase not marked)” value is 1.20.
As to `CCOC(=O)c1ccc(Cl)c(OCCNS(=O)(=O)CC)c1Cl` [VIII-15], the “log P” value is “logP = 2.61”.
For the molecule `CCN(Cc1c(S(C)(=O)=O)ccc(C(=O)C2C(=O)CCCC2=O)c1Cl)OC` [Example 308], the “logP (HPLC, mobile phase not marked)” value was “(I-2) 2.87”.
`CCn1ncc(C(=O)c2ccc(S(C)(=O)=O)c(CN(Cc3ccccc3)OC)c2Cl)c1O` [Example 334]: the “logP (HPLC, mobile phase not marked)” value is 2.82.
On to `COC(=O)c1ccc(S(C)(=O)=O)c(CNN2CCNC2=O)c1Cl` [VIII-5], for which the “log P” value was “logP = 1.24”.
As to `CON(C)Cc1c(S(C)(=O)=O)ccc(C(=O)C2C(=O)CCCC2=O)c1Cl` [Example 303], the “logP (HPLC, mobile phase not marked)” value is “(I-2) 2.49”.

Still in this data set, the particulars now being: reversed-phase C18 HPLC column; HPLC, reversed-phase C 18, 43° C.; mobile phase range not marked; read-out: log P.
Consider `CCOC(=O)c1ccc(Cl)c(OCCNC(=O)OC(C)(C)C)c1Cl` [ethyl 2,4-dichloro-3-[2-[(t-butoxycarbonyl)amino]ethoxy]benzoate], for which the chromatographic logP came to 3.79.
The same measure, in the same setting: next, `CON(C)Cc1c(Cl)ccc(C(=O)O)c1Cl` [II-1, 2,4-dichloro-3-(N-methoxy-N-methylaminomethyl)benzoic acid]: 1.99.

For the origin of these results see patent US7807703B2, “Substituted aryl ketones” (Bayer CropScience AG, priority 2002, dated 2010).
